Reference: patent publication US5702883A, “Methods for detection of mutagens using luminescence gene” (Kabushiki Kaisha Toyota Chuo Kenkyusho, priority 1993, dated 1997)

What was measured:
[1] = system: S. typhimurium TA1535/pSK1002 (umu D,C SOS gene, β-galactosidase expression); assay: Conventional colorimetric method (umu test, β-galactosidase activity), Comparative Example 4; conditions: Table 2; response two times that without test substance; 37° C., 2 hours; S9 Mix where necessary
[2] = system: S. typhimurium TA1535 (umu D,C SOS gene, luminescence genes of pUCD620); assay: Luminescence assay with genes for luciferase and the enzyme producing its substrate, Example 6; conditions: Table 2; response two times that without test substance; 30° C., 2 hours; S9 Mix where necessary
[3] = system: S. typhimurium TA1535/pSK1002 (umu D,C SOS gene, β-galactosidase expression); assay: Conventional colorimetric method (umu test, β-galactosidase activity), Comparative Example 3; conditions: Table 1; response two times that without test substance; 37° C., 2 hours; S9Mix where necessary
[4] = system: S. typhimurium TA1535 (umu D,C SOS gene, luciferase expression); conditions: for Minimum detectable concentration, Method of Present Invention: Table 1, response two times that without test substance, 37° C., 2 hours, S9Mix where necessary; for minimum detectable concentration, fold lower than conventional colorimetric method: first embodiment (luc) vs conventional method
[5] = Conventional colorimetric method (umu test, β-galactosidase activity), Comparative Example 3; conditions: s. typhimurium ta1535/psk1002
in vitro = conditions: s. typhimurium ta1535

| Compound | Minimum detectable concentration, Conventional Method [1] | Minimum detectable concentration, Method of Present Invention [2] | Minimum detectable concentration, Conventional Method [3] | Minimum detectable concentration, Method of Present Invention [4] | minimum detectable concentration, fold lower than conventional colorimetric method [4] | maximal fold induction [5] | dynamic range (highest value of the ratio), expansion relative to conventional colorimetric method ([4]; first embodiment vs conventional colorimetric method) | maximal fold induction (in vitro) |
| --- | --- | --- | --- | --- | --- | --- | --- | --- |
| O=[N+]([O-])c1ccc2ccc3cccc4ccc1c2c34 [1-NP, 1-nitropyrene] | 0.3 µg/mL | 0.05 µg/mL | 0.3 µg/mL | 0.03 µg/mL | about 10 times | – | – | – |
| O=[N+]([O-])c1cc[n+]([O-])c2ccccc12 [4NQO, 4-nitroquinoline 1-oxide] | 0.04 µg/mL | 0.008 µg/mL | 0.04 µg/mL | 0.01 µg/mL | – | – | – | – |
| c1ccc2c(c1)cc1ccc3cccc4ccc2c1c34 [Bap, benzo[a]pyrene] | 1 µg/mL | 0.04 µg/mL | 1 µg/mL | 0.1 µg/mL | about 10 times | – | – | – |
| Nc1ccc2cc3ccccc3cc2c1 [2-AA, 2-aminoanthracene] | 0.1 µg/mL | 0.02 µg/mL | 0.1 µg/mL | 0.04 µg/mL | – | – | – | – |
| NC(=O)C(=Cc1ccc([N+](=O)[O-])o1)c1ccco1 [AF-2, 2-(2-furyl)-3-(5-nitro-2-furyl)-acrylamide] | 0.003 µg/mL | 0.0005 µg/mL | 0.003 µg/mL | 0.0005 µg/mL | – | ~5 | about 3 times | ~15 |
